Here are results for one molecule from patent US11964938B2, “3-phenyl-4-hexynoic acid derivatives as GPR40 agonists” (CELON PHARMA S.A., priority 2018, dated 2024).

Series [1] deals with Wistar HAN Crl:WI (HAN) rats. The experiment in a line: Glucose tolerance test in vivo on rats. The note with it: 10 mg/kg oral single dose, blood. Details: species or system rat. How it is done: Experiment B3: Glucose Tolerance Test In Vivo on Rats.
To evaluate glucose lowering effect of the compounds in in vivo study, glucose tolerance test (GTT) was performed. The study was performed on male outbred Wistar HAN Crl:WI (HAN) rats from Charles River, weight about 250-300 g, 8-10 weeks old. Rats were starved for 12 hours (with free access to water).
At time point t=0 animals were given orally a single dose of a compound (by a gastric tube) and immediately (t=0) and after 6 hour (t=6 h) intraperitoneal (i.p.) glucose bolus ([…]). At time points t=0 (just before oral administration of the compounds and intraperitoneal glucose administration), 0.25, 0.5, 1, 2, 2.5, 3, 6, 6.25, 7, 8, and 9 h blood samples from tail vein were collected from each animal for glucose level determination using Accu-chek glucometer (Roche Diagnostics) and additionally at t=0.25, 0.5, 1, 2, 2.5, and 3 h blood samples from tail vein were collected for insulin level measurement using ELISA test (Mercodia).
Tested compound were prepared in 5% DMSO/40% PEG300/55% PBS vehicle and administered at the dose of 10 mg/kg body weight in a volume of 0.5 ml/100 g body weight. After 4 hours after tested compound administration animals were given standard diet to the cages. Decrease of AUC value for glucose level in blood was calculated and the results for selected compounds of the invention are presented in Table 5. Analysis was performed using GraphPad prism software.

Another series concerns the target T1, human GPR40 receptor (Homo sapiens, UniProt O14842).
T1 construct: host or cells: CHO-K1 (co-expressing aequorin)
The experiment in a line: Analysis of receptor activation - calcium ions concentration measurement (aequorin luminescence). Type of series: cell-based. The note with it: enhancement or decrease of activity in relation to reference TAK-875, from EC50 values. An excerpt:
Experiment B1: Analysis of Receptor Activation—Calcium Ions Concentration Measurement.
As a result of the measurement, luminescence change in the time curve were obtained, the integration of which allowed to calculate the relative amount of calcium ions released to cytosol. […] Curves plotted from obtained results allowed to determine EC50 values.

A further series has as its system type 2 diabetes patients. The settings on record: cited from earlier work.
Series [2] concerns MIN6 (mouse insulinoma) cells. Nature of the series: Glucose-dependent insulin release in mouse insulinoma cells (MIN6). Type of series: cell-based. The note with it: multiplicity of insulin efflux increase in relation to control; 10 uM compound, 20 mM glucose, 1 hour. How it is done: Experiment B2: Glucose-Dependent Insulin Release in Mouse Insulinoma Cells (MIN6).
MIN6 (mouse insulinoma) cells were seeded on a plate covered with PDL (poly-D-lysine) at 5×10^5/well and cultured for 48 hours. […] Tested compounds, after dilution to the concentration of 10-40 uM in KRBH buffer with the addition of 20 mM glucose, were added to the cells and incubated for 1 hour to induce insulin release. Negative control was KRBH buffer with the addition of 2 mM glucose. Concentration of released insulin was determined using ELISA test (Mercodia).
Table 4 present MIN6Insulin @10 uM values for representative compounds of the invention. MIN6Insulin @10 uM value is a multiplicity of insulin efflux increase in relation to control experiment, following addition of 10 uM of tested compound.

T1 sequence (O14842 whole entry): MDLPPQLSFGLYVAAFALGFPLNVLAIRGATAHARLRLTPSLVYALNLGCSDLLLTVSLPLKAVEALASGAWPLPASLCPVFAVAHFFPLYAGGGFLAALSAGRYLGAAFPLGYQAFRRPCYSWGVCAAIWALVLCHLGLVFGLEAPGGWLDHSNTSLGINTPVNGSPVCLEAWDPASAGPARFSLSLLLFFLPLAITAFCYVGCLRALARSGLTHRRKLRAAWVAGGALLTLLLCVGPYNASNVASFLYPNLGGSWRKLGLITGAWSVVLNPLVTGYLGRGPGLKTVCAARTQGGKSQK

Take `Cc1cc(OCCCS(C)(=O)=O)cc(C)c1-c1cccc(COc2ccc3c(c2)OC[C@H]3CC(=O)O)c1` [Example R1, 2[(3S)-6-({3-[4-(3-methanesulfonylpropoxy)-2,6-dimethylphenyl]-phenyl}methoxy)-2,3-dihydro-1-benzofuran-3-yl]acetic acid, reference compound]: in series [1] (i.p. glucose bolus at t=0 and 6 h), the “AUC for glucose (0-540 min.)” value is reported as 30950.6. Moreover, the “AUC for insulin (0-180 min.)” value in series [1] (i.p. glucose bolus) is 210.5. Further, the “% PTAK-875” value on human GPR40 receptor is “B (81-120% PTAK-875)”. Further, the side effects result with type 2 diabetes patients (clinical development, associated with inhibition of bile acids transport) is recorded as “side effects on the liver”. In addition, the glucose levels entry with type 2 diabetes patients (phase 3 clinical trials, type 2 diabetes patients) was “ability to reduce glucose levels”. For the same molecule, the “MIN6Insulin @10 uM” value in series [2] is on record as 1.336.
